Non-standard residues stand in square brackets, D forms with d. Residues, ends and D or L forms follow the SMILES beside them. Dap = NC[C@H](N)C(=O)O
Columns and labels:
Format in all cases: biochemical
glyoxalase I = experiment: Glyoxalase I treated with methylglyoxal: non-denaturing electrophoresis and enzymatic activity
Procedure: MG reacts with a protein's lysine and arginine residues, thus altering the charges on the modified polypeptide. […] The exposure of glyoxalase I to MG (10 mM) for 24 hours increases the mobility of the protein toward the positive electrode, a change that is consistent with the loss of positive charges from the ε-amino and guanidino groups and the gain of negative charges.
The incubation of glyoxalase I, a key protein in the α-oxoaldehyde detoxification system, in the presence of methylglyoxal, modifies the protein. This modification causes a change in charge and a 50% decrease in enzymatic activity compared to the control.

ribonuclease A = experiment: Enzymatic activity of ribonuclease A after treatment with methylglyoxal and inhibitors (methylene blue RNA staining); conditions: ribonuclease A treated with methylglyoxal (MG) + inhibitor in equimolar quantity, 37° C.; control RNase 100, RNase + methylglyoxal 10.11%
Procedure: (§1) Ribonuclease A and lysozyme (10 mg/ml) are incubated in the presence of methylglyoxal (10 mM) or in the presence of methylglyoxal and one of the inhibitors according to the present invention in an equimolar quantity at 37° C. After 48 hours of incubation, the proteins are analyzed by polyacrylamide gel electrophoresis (8%-16% SDS PAGE gel).
The enzymatic activity of ribonuclease A after treatment with methylglyoxal and the various inhibitors according to the present invention is measured using the methylene blue RNA staining technique of Greiner-Stöffele et al. (Anal. Biochem. (1996) 240, 24).

somatostatin-14 = experiment: Somatostatin-14 modifications induced by methylglyoxal (HPLC); conditions: somatostatin-14 0.03 mm, methylglyoxal 3.6 mM, compound 4.3 mM, 24 hours at 37° C.
Procedure: FIGS. 9 and 10 present the results obtained by HPLC for two compounds according to the present invention, L-DAPA-L-Leu (example 1) and L-DAPA-L-Val (example 23), on somatostatin-14 modifications induced by methylglyoxal. HPLC conditions are as follows: C-18, Symmetry 300 (4.6×250 mm) column, injection volume 100 μl of reaction mixture; flow 1 ml/min; solvent A: H2O+0.1% TFA; solvent B: 80/20 CH3CN/H2O+0.1% TFA; linear gradient: from 20% B to 60% B in 15 minutes and isocratic from 60% B for 10 minutes; ambient temperature; detection: PDA (chromatograms extracted at 215 nm).
In these figures, (a) represents the results of somatostatin-14 alone; (b) represents the results of somatostatin-14+methylglyoxal; (c) represents the results of somatostatin-14+methylglyoxal+L-DAPA-L-Val (example 23) and (d) represents the results of somatostatin-14+methylglyoxal+L-DAPA-L-Leu (example 1).

lysozyme = experiment: SDS PAGE electrophoresis of lysozyme incubated with methylglyoxal and inhibitor; conditions: lysozyme 10 mg/ml, methylglyoxal 10 mM, inhibitor equimolar, 37° C., 48 hours
Procedure: as §1

RNase A = RNase A modifications induced by methylglyoxal (HPLC); conditions: RNase A 0.08 mM, methylglyoxal 32 mM, compound 38 mM, 21 hours at 37° C.
Procedure: FIGS. 11 to 13 present the results obtained by HPLC for three compounds according to the present invention, L-DAPA-L-Ile (example 18), L-DAPA-L-Val (example 23) and L-DAPA-L-Leu (example 1), on RNase A modifications induced by methylglyoxal. HPLC conditions are as follows: C-18, Symmetry 300 (4.6×250 mm) column, injection volume 100 μl of reaction mixture diluted to 1/10; flow 1 ml/min; temperature 40° C.; solvent A: H2O+0.1% TFA; solvent B: 60/40 CH3CN/H2O+0.1% TFA; linear gradient of 20% B to 80% B in 20 minutes; detection: UV at 215 nm: PDA (chromatograms extracted at 215 nm).

Human insulin = experiment: Modification of insulin by methylglyoxal (HPLC); conditions: insulin 0.034 mM, methylglyoxal 3.4 mM, scavenger 4.08 mM, pH 7.45, 37° C.
Procedure: FIG. 1 presents the comparative effects of dicarbonyl scavengers in the form of dihydrochloride according to the present invention and the comparison with DAPA on the modification of insulin (Ins) by methylglyoxal (MG). The percentage of insulin is indicated following incubation with methylglyoxal in the presence or absence of dicarbonyl scavengers. Insulin (0.034 mM) is incubated in vitro in a 10 mM phosphate buffer, pH 7.45 (containing 0.1 M NaCl) with methylglyoxal (3.4 mM) in the presence of dicarbonyl scavengers (4.08 mM) for 21 hours at 37° C. Insulin concentration is measured by HPLC (same conditions as in FIG. 3).
FIGS. 3 to 8 present the results obtained by HPLC for two compounds according to the present invention, L-DAPA-L-Leu (example 1) and L-DAPA-L-Val (example 23), on insulin modifications induced by methylglyoxal. It can be observed that these modifications are prevented. The HPLC conditions are as follows: C-18, Symmetry 300 (4.6×250 mm) column, injection volume 100 μl of reaction mixture; flow 1 ml/min; temperature 40° C.; solvent A: H2O+0.1% TFA; solvent B: 60/40 CH3CN/H2O+0.1% TFA; linear gradient of 50% B to 55% B in 15 minutes; detection: UV at 215 nm: PDA (chromatograms extracted at 220 nm).
Human insulin (Ins) is incubated with methylglyoxal (MG) under physiological conditions. After 24 hours, the insulin is completely modified, as illustrated in FIG. 1 (Ins+MG).
On the other hand, insulin is incubated with methylglyoxal in the presence of an equimolar quantity of the AGE inhibitors according to the present invention under physiological conditions.

CC(C)C[C@H](NC(=O)[C@@H](N)CN)C(=O)O [example 1, L-DAPA-L-Leu.2HCl] (H-[Dap]-Leu-OH)
gain of negative charge of glyoxalase I exposed to MG (glyoxalase I; MG 10 mM, 24 hours, non-denaturing electrophoresis): inhibits the gain of negative charge
inhibition of glyoxalase I enzymatic activity and structural modification by methylglyoxal (glyoxalase I; MG alone: 50% decrease in enzymatic activity): prevents the inhibition exerted by methylglyoxal and protects against structural modifications
Enzymatic activity (%) (ribonuclease A): 93.91%
somatostatin-14 modifications induced by methylglyoxal (somatostatin-14): prevent the modifications induced by methylglyoxal
protection from structural modifications (dimer form) caused by methylglyoxal (lysozyme): provides protection
RNase A modifications induced by methylglyoxal (RNase A): prevent the modifications to RNase A
modification of insulin by methylglyoxal (Human insulin): prevented

— US9512176B2, “Age inhibitors” (Centre National de la Recherche Scientifique, priority 2005, dated 2016)
